According to patent US12390437B2, “Itaconic acid derivatives and uses thereof intreating an inflammatory disease or a disease associated with an undesirable immune response” (Sitryx Therapeutics Limited, priority 2019, dated 2025):

system: IL-1β cytokine output from THP-1s; experiment: THP-1 AlphaLISA IL-1β cytokine assay; type: cell-based, human; conditions: Homo sapiens, THP-1, PMA-differentiated THP-1 cells, LPS 24 hr then Nigericin 1 hour; read-out: IL-1β (IC50)
Procedure, shortened: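 PMA-differentiated (72 h) THP-1 cells pretreated 30 min with compound, LPS-stimulated 24 h, then nigericin 1 h at 37 °C. Supernatant IL-1β and IL-6 by AlphaLISA; % inhibition normalised to ±LPS controls, IC50 from concentration-response curves.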

Row | Compound | IC50 [µM]
1 | C=C(CC(=O)O[C@@H](C)CCCCCC)C(=O)OCCc1nnn[nH]1 [Example 129, (S)-1-(2-(1H-tetrazol-5-yl)ethyl) 4-octan-2-yl 2-methylenesuccinate] | 5.5
2 | C=C(CC(=O)OC1CCCCC1)C(=O)OCc1nnn[nH]1 [Example 125, 1-((2H-tetrazol-5-yl)methyl) 4-cyclohexyl 2-methylenesuccinate] | 17

system: not listed separately; experiment: Mouse pharmacokinetic study, intravenous dosing; type: in vivo; conditions: male, C57BL/6, mouse, iv; plasma, 10 mg/kg i.v., time 0.05 h; read-out: Parent compound concentration following intravenous administration
Procedure, shortened: (§1)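 Male C57BL/6 mice (6-8 weeks, fed ad libitum) received 10 mg/kg IV by tail vein in 10% DMSO/HP-β-CD vehicle, or 100 mg/kg by oral gavage in DMSO/HPMC/Tween 80. Facial-vein blood was taken at 9 time points (N=3 each) into K2EDTA; plasma concentrations were measured by LC-MS/MS.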

Row | Compound | concentration at 0.05 h [ng/mL]
3 | C=C(CC(=O)O[C@@H](C)CCCCCC)C(=O)OCCc1nnn[nH]1 [Example 129, (S)-1-(2-(1H-tetrazol-5-yl)ethyl) 4-octan-2-yl 2-methylenesuccinate] | 2920
4 | C=C(CC(=O)OC1CCCCC1)C(=O)OCc1nnn[nH]1 [Example 125, 1-((2H-tetrazol-5-yl)methyl) 4-cyclohexyl 2-methylenesuccinate] | 11900

same assay, conditions: male, C57BL/6, mouse, iv; plasma, 10 mg/kg i.v., time 0.133 h; read-out: Parent compound concentration following intravenous administration

Row | Compound | concentration at 0.133 h [ng/mL]
5 | C=C(CC(=O)O[C@@H](C)CCCCCC)C(=O)OCCc1nnn[nH]1 [Example 129, (S)-1-(2-(1H-tetrazol-5-yl)ethyl) 4-octan-2-yl 2-methylenesuccinate] | 872
6 | C=C(CC(=O)OC1CCCCC1)C(=O)OCc1nnn[nH]1 [Example 125, 1-((2H-tetrazol-5-yl)methyl) 4-cyclohexyl 2-methylenesuccinate] | 3870

same assay, conditions: male, C57BL/6, mouse, iv; plasma, 10 mg/kg i.v., time 0.25 h; read-out: Parent compound concentration following intravenous administration

Row | Compound | concentration at 0.25 h [ng/mL]
7 | C=C(CC(=O)O[C@@H](C)CCCCCC)C(=O)OCCc1nnn[nH]1 [Example 129, (S)-1-(2-(1H-tetrazol-5-yl)ethyl) 4-octan-2-yl 2-methylenesuccinate] | 309
8 | C=C(CC(=O)OC1CCCCC1)C(=O)OCc1nnn[nH]1 [Example 125, 1-((2H-tetrazol-5-yl)methyl) 4-cyclohexyl 2-methylenesuccinate] | 1070

same assay, conditions: male, C57BL/6, mouse, iv; plasma, 10 mg/kg i.v., time 0.5 h; read-out: Parent compound concentration following intravenous administration

Row | Compound | concentration at 0.5 h [ng/mL]
9 | C=C(CC(=O)O[C@@H](C)CCCCCC)C(=O)OCCc1nnn[nH]1 [Example 129, (S)-1-(2-(1H-tetrazol-5-yl)ethyl) 4-octan-2-yl 2-methylenesuccinate] | 96
10 | C=C(CC(=O)OC1CCCCC1)C(=O)OCc1nnn[nH]1 [Example 125, 1-((2H-tetrazol-5-yl)methyl) 4-cyclohexyl 2-methylenesuccinate] | 346

same assay, conditions: male, C57BL/6, mouse, iv; plasma, 10 mg/kg i.v., time 1 h; read-out: Parent compound concentration following intravenous administration

Row | Compound | concentration at 1 h [ng/mL]
11 | C=C(CC(=O)O[C@@H](C)CCCCCC)C(=O)OCCc1nnn[nH]1 [Example 129, (S)-1-(2-(1H-tetrazol-5-yl)ethyl) 4-octan-2-yl 2-methylenesuccinate] | 7.7
12 | C=C(CC(=O)OC1CCCCC1)C(=O)OCc1nnn[nH]1 [Example 125, 1-((2H-tetrazol-5-yl)methyl) 4-cyclohexyl 2-methylenesuccinate] | 38

same assay, conditions: male, C57BL/6, mouse, iv; plasma, 10 mg/kg i.v., time 2 h; read-out: Parent compound concentration following intravenous administration

Row | Compound | concentration at 2 h [ng/mL]
13 | C=C(CC(=O)O[C@@H](C)CCCCCC)C(=O)OCCc1nnn[nH]1 [Example 129, (S)-1-(2-(1H-tetrazol-5-yl)ethyl) 4-octan-2-yl 2-methylenesuccinate] | < 1.6
14 | C=C(CC(=O)OC1CCCCC1)C(=O)OCc1nnn[nH]1 [Example 125, 1-((2H-tetrazol-5-yl)methyl) 4-cyclohexyl 2-methylenesuccinate] | 3

same assay, conditions: male, C57BL/6, mouse, iv; plasma, 10 mg/kg i.v., time 4 h; read-out: Parent compound concentration following intravenous administration

Row | Compound | concentration at 4 h [ng/mL]
15 | C=C(CC(=O)O[C@@H](C)CCCCCC)C(=O)OCCc1nnn[nH]1 [Example 129, (S)-1-(2-(1H-tetrazol-5-yl)ethyl) 4-octan-2-yl 2-methylenesuccinate] | < 1.6
16 | C=C(CC(=O)OC1CCCCC1)C(=O)OCc1nnn[nH]1 [Example 125, 1-((2H-tetrazol-5-yl)methyl) 4-cyclohexyl 2-methylenesuccinate] | < 0.8

same assay, conditions: male, C57BL/6, mouse, iv; plasma, 10 mg/kg i.v., time 6 h; read-out: Parent compound concentration following intravenous administration

Row | Compound | concentration at 6 h [ng/mL]
17 | C=C(CC(=O)O[C@@H](C)CCCCCC)C(=O)OCCc1nnn[nH]1 [Example 129, (S)-1-(2-(1H-tetrazol-5-yl)ethyl) 4-octan-2-yl 2-methylenesuccinate] | < 1.6
18 | C=C(CC(=O)OC1CCCCC1)C(=O)OCc1nnn[nH]1 [Example 125, 1-((2H-tetrazol-5-yl)methyl) 4-cyclohexyl 2-methylenesuccinate] | < 0.8

same assay, conditions: male, C57BL/6, mouse, iv; plasma, 10 mg/kg i.v., time 8 h; read-out: Parent compound concentration following intravenous administration

Row | Compound | concentration at 8 h [ng/mL]
19 | C=C(CC(=O)O[C@@H](C)CCCCCC)C(=O)OCCc1nnn[nH]1 [Example 129, (S)-1-(2-(1H-tetrazol-5-yl)ethyl) 4-octan-2-yl 2-methylenesuccinate] | < 1.6
20 | C=C(CC(=O)OC1CCCCC1)C(=O)OCc1nnn[nH]1 [Example 125, 1-((2H-tetrazol-5-yl)methyl) 4-cyclohexyl 2-methylenesuccinate] | < 0.8

system: not listed separately; experiment: Mouse pharmacokinetic study, oral administration; type: in vivo; conditions: male, C57BL/6, mouse, plasma, po, 100 mg/kg, plasma, male C57BL/6 mice, oral gavage 100 mg/kg, 0.083 h; read-out: Parent compound concentrations following oral administration, Time 0.083 h
Procedure, shortened: as §1

Row | Compound | concentration at 0.083 h [ng/mL]
21 | C=C(CC(=O)O[C@@H](C)CCCCCC)C(=O)OCCc1nnn[nH]1 [Example 129, (S)-1-(2-(1H-tetrazol-5-yl)ethyl) 4-octan-2-yl 2-methylenesuccinate] | 305
22 | C=C(CC(=O)OC1CCCCC1)C(=O)OCc1nnn[nH]1 [Example 125, 1-((2H-tetrazol-5-yl)methyl) 4-cyclohexyl 2-methylenesuccinate] | 9360

same assay, conditions: male, C57BL/6, mouse, plasma, po, 100 mg/kg, plasma, male C57BL/6 mice, oral gavage 100 mg/kg, 0.25 h; read-out: Parent compound concentrations following oral administration, Time 0.25 h

Row | Compound | concentration at 0.25 h [ng/mL]
23 | C=C(CC(=O)O[C@@H](C)CCCCCC)C(=O)OCCc1nnn[nH]1 [Example 129, (S)-1-(2-(1H-tetrazol-5-yl)ethyl) 4-octan-2-yl 2-methylenesuccinate] | 1030
24 | C=C(CC(=O)OC1CCCCC1)C(=O)OCc1nnn[nH]1 [Example 125, 1-((2H-tetrazol-5-yl)methyl) 4-cyclohexyl 2-methylenesuccinate] | 4360

same assay, conditions: male, C57BL/6, mouse, plasma, po, 100 mg/kg, plasma, male C57BL/6 mice, oral gavage 100 mg/kg, 0.5 h; read-out: Parent compound concentrations following oral administration, Time 0.5 h

Row | Compound | concentration at 0.5 h [ng/mL]
25 | C=C(CC(=O)O[C@@H](C)CCCCCC)C(=O)OCCc1nnn[nH]1 [Example 129, (S)-1-(2-(1H-tetrazol-5-yl)ethyl) 4-octan-2-yl 2-methylenesuccinate] | 109
26 | C=C(CC(=O)OC1CCCCC1)C(=O)OCc1nnn[nH]1 [Example 125, 1-((2H-tetrazol-5-yl)methyl) 4-cyclohexyl 2-methylenesuccinate] | 2650

same assay, conditions: male, C57BL/6, mouse, plasma, po, 100 mg/kg, plasma, male C57BL/6 mice, oral gavage 100 mg/kg, 1 h; read-out: Parent compound concentrations following oral administration, Time 1 h

Row | Compound | concentration at 1 h [ng/mL]
27 | C=C(CC(=O)O[C@@H](C)CCCCCC)C(=O)OCCc1nnn[nH]1 [Example 129, (S)-1-(2-(1H-tetrazol-5-yl)ethyl) 4-octan-2-yl 2-methylenesuccinate] | 255
28 | C=C(CC(=O)OC1CCCCC1)C(=O)OCc1nnn[nH]1 [Example 125, 1-((2H-tetrazol-5-yl)methyl) 4-cyclohexyl 2-methylenesuccinate] | 1430

same assay, conditions: male, C57BL/6, mouse, plasma, po, 100 mg/kg, plasma, male C57BL/6 mice, oral gavage 100 mg/kg, 2 h; read-out: Parent compound concentrations following oral administration, Time 2 h

Row | Compound | concentration at 2 h [ng/mL]
29 | C=C(CC(=O)O[C@@H](C)CCCCCC)C(=O)OCCc1nnn[nH]1 [Example 129, (S)-1-(2-(1H-tetrazol-5-yl)ethyl) 4-octan-2-yl 2-methylenesuccinate] | 61
30 | C=C(CC(=O)OC1CCCCC1)C(=O)OCc1nnn[nH]1 [Example 125, 1-((2H-tetrazol-5-yl)methyl) 4-cyclohexyl 2-methylenesuccinate] | 785

same assay, conditions: male, C57BL/6, mouse, plasma, po, 100 mg/kg, plasma, male C57BL/6 mice, oral gavage 100 mg/kg, 4 h; read-out: Parent compound concentrations following oral administration, Time 4 h

Row | Compound | concentration at 4 h [ng/mL]
31 | C=C(CC(=O)O[C@@H](C)CCCCCC)C(=O)OCCc1nnn[nH]1 [Example 129, (S)-1-(2-(1H-tetrazol-5-yl)ethyl) 4-octan-2-yl 2-methylenesuccinate] | 13
32 | C=C(CC(=O)OC1CCCCC1)C(=O)OCc1nnn[nH]1 [Example 125, 1-((2H-tetrazol-5-yl)methyl) 4-cyclohexyl 2-methylenesuccinate] | 427

same assay, conditions: male, C57BL/6, mouse, plasma, po, 100 mg/kg, plasma, male C57BL/6 mice, oral gavage 100 mg/kg, 6 h; read-out: Parent compound concentrations following oral administration, Time 6 h

Row | Compound | concentration at 6 h [ng/mL]
33 | C=C(CC(=O)O[C@@H](C)CCCCCC)C(=O)OCCc1nnn[nH]1 [Example 129, (S)-1-(2-(1H-tetrazol-5-yl)ethyl) 4-octan-2-yl 2-methylenesuccinate] | 16
34 | C=C(CC(=O)OC1CCCCC1)C(=O)OCc1nnn[nH]1 [Example 125, 1-((2H-tetrazol-5-yl)methyl) 4-cyclohexyl 2-methylenesuccinate] | 163

same assay, conditions: male, C57BL/6, mouse, plasma, po, 100 mg/kg, plasma, male C57BL/6 mice, oral gavage 100 mg/kg, 8 h; read-out: Parent compound concentrations following oral administration, Time 8 h

Row | Compound | concentration at 8 h [ng/mL]
35 | C=C(CC(=O)O[C@@H](C)CCCCCC)C(=O)OCCc1nnn[nH]1 [Example 129, (S)-1-(2-(1H-tetrazol-5-yl)ethyl) 4-octan-2-yl 2-methylenesuccinate] | 11
36 | C=C(CC(=O)OC1CCCCC1)C(=O)OCc1nnn[nH]1 [Example 125, 1-((2H-tetrazol-5-yl)methyl) 4-cyclohexyl 2-methylenesuccinate] | 15

same assay, conditions: male, C57BL/6, mouse, plasma, po, 100 mg/kg, plasma, male C57BL/6 mice, oral gavage 100 mg/kg, 24 h; read-out: Parent compound concentrations following oral administration, Time 24 h

Row | Compound | concentration at 24 h [ng/mL]
37 | C=C(CC(=O)O[C@@H](C)CCCCCC)C(=O)OCCc1nnn[nH]1 [Example 129, (S)-1-(2-(1H-tetrazol-5-yl)ethyl) 4-octan-2-yl 2-methylenesuccinate] | 3.5
38 | C=C(CC(=O)OC1CCCCC1)C(=O)OCc1nnn[nH]1 [Example 125, 1-((2H-tetrazol-5-yl)methyl) 4-cyclohexyl 2-methylenesuccinate] | < 0.8
